One data set concerns the target T1, human CB2 receptor (Homo sapiens, UniProt P34972).
T1 construct: expressed in transfected cells
As to the kind of experiment: Human CB2 receptor binding inhibition test ([3H]CP-55,940, CHO membrane fractions). An excerpt:
Human CB2 Receptor Binding Inhibition Test
First, cDNA sequence (Munro et al., Nature, 1993, 365, 61-65) encoding a human CB2 receptor was inserted in the forward direction in an animal-cell expression vector, pTARGET Vector (manufactured by Promega) at a region downstream of a CMV promoter. Host cells CHO-DHFR(−) were transfected with the obtained expression vector with the aid of Lipofectamine (manufactured by Invitrogen) to obtain cells capable of stably expressing the CB2 receptor.
After the filtrate was washed with an assay buffer containing 0.1% bovine serum albumin, the radioactivity on the glass filter was measured by a liquid scintillation counter. Nonspecific binding was measured in the presence of 2.0 μM CP-55,940 (manufactured by Tocris). 50% inhibitory concentration (IC50 value) of the test compound for the specific binding was obtained.

Where [1] appears, read: [3H]CP-55,940, membrane fractions of CHO cells stably expressing human CB2 receptor, 25° C., 2 hours, read-out: CB2 IC50 (Inhibition of binding to human CB2 receptor).

Each structure is given as a SMILES string. Like-named read-outs stand apart in the source and are kept apart here.

The IC50 is the point on the concentration scale where inhibition reaches its midpoint. The melting point is the temperature, or range, at which the solid turns liquid.

T1 sequence (P34972 whole entry): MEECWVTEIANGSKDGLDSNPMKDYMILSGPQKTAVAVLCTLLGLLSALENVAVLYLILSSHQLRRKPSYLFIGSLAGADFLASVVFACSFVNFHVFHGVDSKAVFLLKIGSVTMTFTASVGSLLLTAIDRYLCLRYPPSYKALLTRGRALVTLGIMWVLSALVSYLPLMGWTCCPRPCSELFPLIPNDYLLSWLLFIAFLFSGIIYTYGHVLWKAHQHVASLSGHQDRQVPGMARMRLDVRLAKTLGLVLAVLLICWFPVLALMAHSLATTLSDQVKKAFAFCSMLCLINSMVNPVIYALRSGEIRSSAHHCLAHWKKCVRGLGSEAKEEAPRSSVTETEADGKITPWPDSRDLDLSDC

`Cc1c(Cl)cccc1C(=O)/N=c1\sc(C(C)(C)C)c(C)n1C` [compound 139] showed a melting point of 161 to 162 °C. Besides, on human CB2 receptor (setting [1]), the IC50 is 7.4 nM. The corresponding values for `Cc1c(C(C)(C)C)s/c(=N\C(=O)c2cc(C(F)(F)F)ccc2C(F)(F)F)n1CC1CC1` [compound 220] are 159 to 161 °C and 3.9 nM. With `CSc1ncccc1C(=O)/N=c1\sc(C(C)(C)C)c(C)n1CC1CC1` [compound 312], the melting point is 138 to 139 °C. The IC50 at human CB2 receptor (setting [1]) was determined as 14 nM.

In turn, `Cc1c(C(C)(C)C)s/c(=N\C(=O)c2cc3sccc3nc2C(F)(F)F)n1CC1CC1` [compound 328] gave a melting point of 147 to 149 °C. The IC50 at human CB2 receptor (setting [1]) was 11.8 nM. `COCCn1c(C)c(C(C)(C)C)s/c1=N\C(=O)c1cccc(C(F)(F)F)c1` [compound 344] registered a melting point of 172 to 173 °C. The IC50 on human CB2 receptor (setting [1]) came out at 12.2 nM. The corresponding values for `Cc1s/c(=N\C(=O)c2cc(C(F)(F)F)ccc2F)n(CC2CC2)c1C` [compound 92] are 122 to 123 °C and 3.9 nM. Turning to `CCn1c(C)c(C)s/c1=N\C(=O)c1cccc(C(F)(F)F)c1F` [compound 70], the melting point lay in the range of 198 to 200 °C. The IC50 on human CB2 receptor (setting [1]) is 14.9 nM. Turning to `Cc1c(C(C)(C)C)s/c(=N\C(=O)c2cccc(F)c2F)n1CC1CC1` [compound 222], the half-maximal inhibitory concentration (IC50) at human CB2 receptor (setting [1]) is 11.3 nM. In the case of `Cn1c(C(C)(C)C)c/c(=N\C(=O)c2cccc(C(F)(F)F)c2F)n1CC1CCC1` [compound 482, N-(5-t-butyl-2-cyclobutylmethyl-1,2-dihydro-1-methylpyrazol-3-ylidene)-2-fluoro-3-(trifluoromethyl)benzamide], the IC50 at human CB2 receptor (setting [1]) came to 1.2 nM.

`COCCOc1ccc(C(F)(F)F)cc1C(=O)/N=c1\sc(C(C)(C)C)c(C)n1CC1CC1` [compound 270] came in with a melting point of 108 to 110 °C. Besides, on human CB2 receptor (setting [1]), the IC50 amounted to 0.7 nM.

`Cc1c(C(C)(C)C)s/c(=N\C(=O)c2cc(Br)ccc2F)n1C` [compound 132] yielded a melting point of 144 to 145 °C. In addition, the half-maximal inhibitory concentration (IC50) on human CB2 receptor (setting [1]) stood at 15.7 nM. With `Cc1cccc(Br)c1C(=O)/N=c1\oc(C(C)(C)C)c(C)n1CC1CC1` [compound 248], the melting point lay within 89 to 90 °C. Also, at human CB2 receptor (setting [1]), the half-inhibitory concentration (IC50) stood at 5.6 nM.

Turning to `Cc1c(C(C)(C)C)s/c(=N\C(=O)c2cccc(C#N)c2)n1CC1CC1` [compound 211], on human CB2 receptor (setting [1]), the IC50 amounted to 12 nM. With `COc1ccc(C(F)(F)F)cc1C(=O)/N=c1\sc(C(C)(C)C)nn1CC1CC1` [compound 509], the melting point fell in the range of 82 to 83 °C. Moreover, the 50% inhibitory concentration (IC50) on human CB2 receptor (setting [1]) is 5.9 nM. `CC#CCn1c(C)c(C(C)(C)C)s/c1=N\S(=O)(=O)c1cccc2ccccc12` [compound 427]: the IC50 at human CB2 receptor (setting [1]) came to 5.9 nM. For `Cc1c(C(C)(C)C)s/c(=N\C(=O)c2cccc(Cl)c2F)n1CC1CC1` [compound 225], the concentration for half-maximal inhibition (IC50) on human CB2 receptor (setting [1]) came to 3.9 nM. In the case of `CCc1ccccc1C(=O)/N=c1\sc(C(C)(C)C)c(C)n1CC` [compound 150], the IC50 at human CB2 receptor (setting [1]) came to 15 nM. Take `CC(C)(C)c1c/c(=N\C(=O)c2cc(C(F)(F)F)ccc2F)n(CC2CC2)o1` [compound 54]: the IC50 at human CB2 receptor (setting [1]) worked out at 18.7 nM. As for `CCn1c(C(C)(C)C)c/c(=N\C(=O)c2cccc(C(F)(F)F)c2F)n1CC1CC1` [compound 495], the IC50 on human CB2 receptor (setting [1]) is 6.3 nM. Same read-out and setting: with `CC(C)OCCn1/c(=N/C(=O)c2cccc(C(F)(F)F)c2F)cc(C(C)(C)C)n1C` [compound 493] the figure was 1.9 nM. For `Cn1c(C(C)(C)C)c/c(=N\C(=O)c2cccc(C(F)(F)F)c2F)n1CC1CCCC1` [compound 485], at human CB2 receptor (setting [1]), the IC50 turned out to be 1.1 nM. As for `Cc1c(C(C)(C)C)s/c(=N\S(=O)(=O)c2c(Cl)cccc2Cl)n1CC1CC1` [compound 402], the IC50 on human CB2 receptor (setting [1]) turned out to be 15.4 nM. Take `Cn1c(C(C)(C)C)c/c(=N\C(=O)c2cccc(C(F)(F)F)c2Cl)n1CC1CC1` [Compound No. 476, N-(5-t-butyl-2-cyclopropylmethyl-1,2-dihydro-1-methylpyrazol-3-ylidene)-2-chloro-3-(trifluoromethyl)benzamide]: the concentration for half-maximal inhibition (IC50) on human CB2 receptor amounted to 3.9 nM.

`Cc1c(C(=O)/N=c2\cc(C(C)(C)C)n(C)n2CC2CC2)cccc1C(F)(F)F` [compound 470]: at human CB2 receptor (setting [1]), the IC50 amounted to 10.6 nM. Still for that read-out and setting: to `CCn1c(C)c(C(C)(C)C)s/c1=N\C(=O)c1ccc(Cl)cc1OC` [compound 168] belongs 5.4 nM; to `CC(C)(C)c1c/c(=N\C(=O)c2cccc(C(F)(F)F)c2)n(CC2CC2)s1` [compound 57], 3.8 nM.

On to `CCOc1ccncc1C(=O)/N=c1\sc(C(C)(C)C)nn1CC1CC1` [compound 513], for which the concentration for half-maximal inhibition (IC50) at human CB2 receptor (setting [1]) is 16.9 nM. On the same count and under the same terms, with `Cc1c(C(C)(C)C)s/c(=N\C(=O)c2ccc(F)cc2C(F)(F)F)n1CC1CC1` [compound 255] the figure was 0.6 nM; with `CCCCn1c(C)c(C(C)(C)C)s/c1=N\S(=O)(=O)c1cccc2ccccc12` [compound 387], 13.7 nM; with `Cc1c(C(C)(C)C)s/c(=N\S(=O)(=O)c2cccc(Cl)c2Cl)n1CC1CC1` [compound 399], 6.8 nM. Consider `CC(C)(C)c1nn(CC2CC2)/c(=N/C(=O)c2cccc(C(F)(F)F)c2F)s1` [compound 504], for which, at human CB2 receptor (setting [1]), the half-inhibitory concentration (IC50) came out at 15.4 nM. For `Cc1cc(C)c(S(=O)(=O)/N=c2\sc(C(C)(C)C)c(C)n2CC2CC2)c(C)c1` [compound 410], on human CB2 receptor (setting [1]), the half-maximal inhibitory concentration (IC50) worked out at 7.1 nM. Same read-out and setting: to `COc1ccccc1C(=O)/N=c1\sc(C(C)(C)C)c(C)n1CC1CC1` [compound 195] belongs 3.2 nM; to `Cc1c(C(C)(C)C)s/c(=N\C(=O)c2ccccc2OC(F)(F)F)n1CC1CC1` [compound 197], 2 nM; to `Cc1c(C(C)(C)C)s/c(=N\C(=O)c2cccc(C(F)(F)F)c2F)n1CC1CC1` [compound 250], 1.1 nM.

As to `Cc1c(C(C)(C)C)s/c(=N\C(=O)c2cccc(Cl)c2)n1CC1CC1` [compound 187], the IC50 at human CB2 receptor (setting [1]) amounted to 17 nM. Still for that read-out and setting: with `Cc1c(C(C)C)o/c(=N\C(=O)c2cccc(C(F)(F)F)c2F)n1CC1CC1` [compound 369] the figure was 1.4 nM. In the case of `CCOCCn1/c(=N/C(=O)c2cccc(C(F)(F)F)c2F)cc(C(C)(C)C)n1C` [compound 488], the IC50 on human CB2 receptor (setting [1]) came out at 4 nM. The compound `Cc1c(C(C)(C)C)s/c(=N\C(=O)c2ccc(Cl)cc2)n1CC1CC1` displayed a melting point of 94 to 95 °C.

In turn, `CCCCn1cccc/c1=N\C(=O)c1cccc(C(F)(F)F)c1F` had a melting point of 51 to 52 °C. On the same count and under the same terms, to `CN(C)c1cccc(C(=O)/N=c2\sc3ccccc3n2CC2CC2)c1` belongs 156 to 158 °C. Same read-out and setting: with `Cc1c(C(C)(C)C)s/c(=N\C(=O)c2ccccc2O)n1CC1CC1` the figure was 178 to 180 °C. Take `O=C(/N=c1\sc2c(n1CC1CC1)CCCC2)c1cccc(C(F)(F)F)c1`: the melting point lay within 159 to 160 °C. Still for that read-out and setting: to `Cc1ccc(C(F)(F)F)cc1C(=O)/N=c1\sc(C(C)(C)C)nn1CC1CC1` belongs 63 to 65 °C; to `CCOCCn1cccc/c1=N\C(=O)c1cccc(C(F)(F)F)c1F`, 104.5 to 105.5 °C; to `COc1ccc(C(F)(F)F)cc1C(=O)/N=c1\cc(C(C)(C)C)on1CC1CC1`, 64 to 65 °C. `CCOC(=O)c1s/c(=N\C(=O)c2cccc(C(F)(F)F)c2)n(CC2CC2)c1C` came in with a melting point of 115 to 116 °C. With `Cn1c(C(F)(F)F)c(-c2ccccc2)/c(=N\C(=O)c2cccc(C(F)(F)F)c2F)n1C`, the melting point lay in the range of 169.5 to 170 °C.

The values are drawn from patent publication US20080312435A1, “Imine Compound” (TAISHO PHARMACEUTICAL CO., LTD., priority 2004, published 2008).
